# In patent US8158804B2, “Chelating agents” (GE Healthcare AS, priority 2007, dated 2012):
# Columns and labels:
# [1] = Solubility of gadolinium chelates in water by HPLC analysis; type: physicochemical; details: aqueous solution at 20° C.; for Water solubility of chelate: equilibration by shaking for a few hours
# Description: The solubility of the gadolinium chelates in table 2 was measured by HPLC analysis of the concentrations of compound in aqueous solutions at 20° C. after equilibration by shaking for a few hours. […] This indicated the saturation point of the solution.
# [2] = Stability of gadolinium chelates, spectrophotometric (UV absorbance vs pH) method; type: physicochemical; details: chelant with 1 equivalent of gadolinium (III); calculated from UV absorbance as a function of pH
# Description: Stabilities of the gadolinium complexes of the chelates were measured by a spectrophotometric method using the principle that there is a change in UV absorbance of these compounds as the hydroxyl group on the pyridinone ring deprotonates. There is a significant decrease in the wavelength of the UV maximum as the proton is removed. The UV absorbance of the chelants at different pH's was determined to measure the UV absorbance at different degrees of protonation. The measurements were then repeated in the presence of 1 equivalent of gadolinium (III) and the effect on the UV absorbtion as a function of pH measured. A software program was used to analyze the data and calculate the affinity of the chelates for gadolinium.
# [3] = Reference 1; cited from earlier work
# [4] = Measurement of longitudinal relaxivity (T1 by inversion recovery method); type: physicochemical
# Description: T1 was measured by the inversion recovery method as described by Timothy D. W. Claridge, in “High-Resolution NMR Techniques in Organic Chemistry” Pergamon Amsterdam 1999, 26-30.
Molecule,Gd Chelate STABILITY CONSTANT (LogKGdL) [2],Water solubility of chelate [1] [µg/mL],also measured
"Bis aquo tris((3-hydroxy-1-(2,3,4-trihydroxybutane)-4-oxo-4H-pyridin-2yl-)carboxyaminoeth-2-yl)amine gadolinium (III) salt [Example 7]",–,–,"Water solubility of chelate (kinetic solubility) ([1]; kinetic solubility, some compound precipitates on standing): ~10 mg/ml* *Kinetic solubility, but some compound precipitates on standing"
"COCCn1ccc(=O)c(O)c1C(=O)NCC1CC(CNC(=O)c2c(O)c(=O)ccn2CCOC)CC(CNC(=O)c2c(O)c(=O)ccn2CCOC)C1 (stereo not drawn) [Example 3, Cis, cis 1,3,5,tris((3-hydroxy-1-(2-methoxyethyl)-4-oxo-4H-pyrid-2yl-)carboxyaminomethyl)-cyclohexane]",21.287,–,–
Bis aquo tris(-3-hydroxy-1-(2-hydroxyethyl)-4-oxo-4H-pyridin-2yl-)carboxyaminoeth-2-yl)-amine gadolinium (III) salt [Example 4],17.929,<500,–
Bis aquo tris(3-hydroxy-1-(2-methoxyethyl)-4-oxo-4H-pyridin-2yl-)carboxyaminoeth-2-yl)amine gadolinium (III) salt [Example 1e],–,<500,r1 at 10 MHz ([4]; 10 MHz): 9.7 mM⁻¹ s⁻¹; r1 at 20 MHz ([4]; 20 MHz): 11.6 mM⁻¹ s⁻¹; r1 at 60 MHz ([4]; 60 MHz): 9.5 mM⁻¹ s⁻¹

# Second part, led by results:
Gd Chelate STABILITY CONSTANT (LogKGdL) [2],Water solubility of chelate [1] [µg/mL],Molecule,also measured
18.284,–,O=C(NC(CCCNC(=O)c1c(O)c(=O)ccn1CCO)(CCCNC(=O)c1c(O)c(=O)ccn1CCO)CCCNC(=O)c1c(O)c(=O)ccn1CCO)c1ccccc1 [Example 12],–
15.716,–,"COCCn1ccc(=O)c(O)c1C(=O)NCCCC(CCCNC(=O)c1c(O)c(=O)ccn1CCOC)(CCCNC(=O)c1c(O)c(=O)ccn1CCOC)NC(=O)c1ccccc1 [Example 11, Tris((3-hydroxy-1-(2-methoxyethyl)-4-oxo-4H-pyridin-2-yl)-carboxyaminopropyl)-phenylcarboxyaminomethane]",–
–,3400,"Bis aquo tris((3-hydroxy-1-(2,3-dihydroxypropane)-4-oxo-4H-pyrid-2yl-)carboxyaminoeth-2-yl)-amine gadolinium (III) salt [Example 6]",–
–,>200000,"Bis aquo tris((3-hydroxy-1-(2,3,4,5,6-pentahydroxyhexane)-4-oxo-4H-pyridin-2yl-]carboxyaminoeth-2-yl)amine gadolinium (III) [Example 8]",–
18.650,–,"O=C(NCCN(CCNC(=O)c1occc(=O)c1O)CCNC(=O)c1occc(=O)c1O)c1occc(=O)c1O [Standard, reference compound]",pGd [3]: 19.27
–,<1000,Bis aquo tris((3-hydroxy-1-(2-(2-hydroxyethoxy)ethyl)-4-oxo-4H-pyridin-2yl-)carboxyaminoeth-2-yl)amine gadolinium (III) salt [Example 5],–
